Values quoted from earlier work, collected in patent publication US12017989B2, “Controlled release pharmaceutical formulations” (United Therapeutics Corporation, priority 2013, dated 2024).

Conditions: continuous subcutaneous infusion using a pump; Wade et al., J Clin Pharmacol 2004

peak-to-trough variation of concentration profile: 20-30%
SMILES: CCCCC[C@H](O)CC[C@@H]1[C@H]2Cc3cccc(OCC(=O)O)c3C[C@H]2C[C@H]1O [treprostinil]
